Laboratory results as given in article PMC11098465, “A comparative analysis of peptide-delivered antisense antibiotics using diverse nucleotide mimics” (RNA, 2024).

What was measured:
[1] = system: acpP mRNA; assay: RNA-seq of KFF-ASO-treated Salmonella (acpP mRNA depletion); type: cell-based, Salmonella enterica serovar Typhimurium strain SL1344; design: key to acpP depletion (RNA-seq): +++: Effect strength is represented by additional (+) signs.; ++: Effect strength is represented by additional (+) signs.; Effect strength is represented by additional (+) signs; conditions: 15 min; for acpP depletion (RNA-seq): ASO conjugated to the carrier peptide, 5 µM, summary grade
Method: To assay bacterial responses to the different ASO modalities and to determine target mRNA depletion in cellulo, we performed RNA-seq analysis of Salmonella challenged with 5 µM KFF-ASO conjugates for 15 min. We first evaluated two individual RNA-seq experiments by principal component analysis (PCA) and observed three distinct clusters (Fig. 5). The PCA cluster 1 grouped the water control, RNA-MOE, RNA-OMe, and the PNA-treated conditions. […] Cluster 2 grouped the other negASOs. As we have previously observed for KFF peptide exposure ([Popella et al. 2021], [2022]), these treatments led to the activation of a cationic antimicrobial peptide (CAMP) response, including induction of the PhoP/Q and PmrA/B regulons involved in remodeling LPS, and the CpxR regulon that responds to envelope stress (Fig. 7). […] These treatments also led to the down-regulation of genes responsible for the destruction of superoxide anion radicals (sodB) and those involved in manganese efflux (yebN) (Figs. 6 and 7). Finally, cluster 3 grouped samples of the unconjugated peptides and the PMO treatment. Similarly to cluster 2, these activated a strong CAMP response (Fig. 7).
RNA isolation was performed using previously published protocols ([Popella et al. 2021], [2022]). Bacterial overnight cultures were diluted 1:100 in fresh MHB and grown to OD600 0.5. The cultures were diluted to ∼10^6 cfu/mL in noncation-adjusted MHB. […]
Total RNA was purified from bacterial pellets using the miRNeasy Mini kit (Qiagen) according to protocol #3 described in [Popella et al. (2021]). […] RNA concentration was measured with a NanoDrop spectrophotometer.
For transcriptomic analyses, RNA samples were processed and subjected to RNA-seq at the Core Unit SysMed (University of Würzburg). […] Sequencing of pooled libraries, spiked with 5% PhiX control library, was performed at 10 million reads/sample in single-end mode with 75 nt read length on the NextSeq 500 platform (Illumina) using High output sequencing kits. […]

[2] = system: Salmonella outer membrane; assay: Outer membrane permeabilization (NPN fluorescence); type: cell-based, Salmonella enterica serovar Typhimurium strain SL1344; design: key to Outer membrane permeation: +++: Effect strength is represented by additional (+) signs.; ++: Effect strength is represented by additional (+) signs.; Effect strength is represented by additional (+) signs; conditions: for Outer membrane permeation: ASO conjugated to the carrier peptide, 10 µM, NPN fluorescence, summary grade; for Outer membrane permeabilization, NPN fluorescence (in words): KFF-ASOs 10 µM, CTAB 10 µM, PMXB 0.4 µM, added after 14 min
From the text: Because the negASOs are ineffective in bacterial cells despite their activity in cell-free systems, we investigated if these ASOs affected the ability of the KFF carrier peptide to induce OM permeabilization. Therefore, we used the hydrophobic fluorophore N-phenylnaphthylamine (NPN), a dye that turns fluorescent after binding to hydrophobic regions within cell membranes. This only occurs in cells with a compromised OM ([Ghosh et al. 2016]; [Ellis et al. 2019]). […] However, when conjugated to negASOs, the KFF carrier is unable to permeabilize the OM (Fig. 10). This could potentially be due to electrostatic interactions between the negASOs and the positively charged KFF.
The experiments were performed by modifying previously published protocols ([Ghosh et al. 2016]; [Ellis et al. 2019]; [Zheng et al. 2021]). Salmonella (WT SL1344, JVS-1574) were grown overnight in 4 mL MHB medium at 37°C (with shaking at 220 rpm). Then the culture was diluted 1:100 and grown until OD600 0.5 (∼2 × 10^8 cfu/mL). This culture was harvested and washed two times with 5 mM HEPES and further diluted to OD600 0.2 in 5 mM HEPES supplemented with 5 mM Glucose (pH 7.2). These cells were then incubated with NPN (Sigma) at a final concentration of 10 µM. One hundred and ninety microliters of NPN-treated cells were transferred into 96-well back plates with transparent bottoms and fluorescence (excitation = 350 nm, emission = 420 nm) was recorded for 60 min (reading was performed every minute) using a Synergy H1 plate reader (Biotek). On the 14th minute, 10 µL of the test compounds (10 µM final concentration) was added into the wells. CTAB (Sigma) 10 µM (final concentration) or PMXB (Sigma) (final concentration of 0.4 µM) were used as positive controls, while water was used as negative control. The fluorescence of the wells was monitored using the same settings as above. The plots were created using OrginPro 2023. The experiment was performed twice and Figure 10 is a representative example of two independent experiments.

Row | Substance | acpP mRNA levels after treatment (in words) ([1]; 5 µM KFF-ASO conjugates, RNA-seq) | acpP depletion (RNA-seq) [1] | Outer membrane permeation [2] | Outer membrane permeabilization, NPN fluorescence (in words) [2]
1 | PNA: peptide nucleic acid 10mer ASO, sequence CTCATACTCT, targeting acpP −5 to +5 (all peptide nucleic acid (PNA)) | reduces the levels of acpP mRNA | ++ | ++ | this ability is retained upon conjugation
2 | PMO: phosphorodiamidate morpholino 10mer ASO, sequence CTCATACTCT, targeting acpP −5 to +5 (all phosphorodiamidate morpholino (PMO)) | – | + | ++ | this ability is retained upon conjugation
